Experimental data published in patent publication US9751885B2, “Cyclopropanamine compound and use thereof” (Takeda Pharmaceutical Company Limited, priority 2012, dated 2017).
Where a name gives a salt, the structure may show the parent alone. Read-outs that look alike come from different tables or passages of the source.

Experiments:
[1] = Evaluation of hippocampal distribution in mouse; format: in vivo; conditions: male ICR mice, 10 mg/kg oral; for concentration at 1 h / Kp at 1 h: 1 hr after administration; for concentration at 0.5 h / Kp at 0.5 h: 0.5 hr after administration
Protocol: Evaluation of Hippocampal Distribution in Mouse
(§1) Male ICR mice (hereinafter mice) were acclimated for at least one week in a rearing facility. The mice were raised in a rearing room with controlled temperature and humidity under a 12:12 hour light-dark cycle, and allowed free ingestion of feed and water.
The compounds were suspended in 0.5% methylcellulose/0.02% citric acid/distilled water and orally administered. All compounds were administered to the mice at a dose of 10 mg/kg (body weight).
Blood samples were collected at 0.5 hr, or 1 hr, or 1.5 hr from compound administration, and the hippocampus was isolated simultaneously. The plasma concentration and hippocampus concentration of each test compound were measured by the LC/MS/MS method, the ratio (hippocampus/plasma concentration ratio) was calculated, and distribution into hippocampus was evaluated.

[2] = tested on: white blood cell number, red blood cell number, platelet number; assay: Evaluation of blood cell number in mouse; format: in vivo; conditions: oral, Day 2 after administration
Protocol: Evaluation of Blood Cell Number in Mouse
as §1
The compounds were suspended in 0.5% methylcellulose/0.02% citric acid/distilled water and orally administered. All compounds were administered to the mice at a dose of 1 mg/kg, 10 mg/kg, 50 mg/kg or 100 mg/kg (body weight). On Day 2 after the administration of the compound, the whole blood was collected.
Using Sysmex XT-1800i (Sysmex Corporation), the white blood cell number, red blood cell number, and platelet number in the collected whole blood per unit volume were measured. The influence of each compound on each blood cell number was determined by comparing the number with the mean of each blood cell number of the mouse without administration of the compound (control group), and the numerical value of each blood cell number of a mouse with the administration of the compound is shown in percentage. percentage (%) of blood cell number of compound administration group as compared to control group=(mean blood cell number of compound administration group mean blood cell number of compound non-administration group)×100

[3] = hippocampus, read-out: hippocampus concentration (mean)
[4] = hippocampus/plasma, read-out: hippocampus/plasma concentration ratio (mean)
[5] = plasma, read-out: plasma concentration (mean)

Row | Compound | concentration at 1 h [1, 3] [ng/g] | Kp at 1 h [1, 4] | concentration at 1 h [1, 5] [ng/mL] | platelet number, percentage of compound administration group compared to control group, mean ([2]; 10 mg/kg) [%] | red blood cell number, percentage of compound administration group compared to control group, mean ([2]; 10 mg/kg) [%] | white blood cell number, percentage of compound administration group compared to control group, mean ([2]; 10 mg/kg) [%] | platelet number, percentage of compound administration group compared to control group, mean ([2]; 100 mg/kg) [%] | red blood cell number, percentage of compound administration group compared to control group, mean ([2]; 100 mg/kg) [%] | white blood cell number, percentage of compound administration group compared to control group, mean ([2]; 100 mg/kg) [%] | concentration at 0.5 h [1, 3] [ng/g] | Kp at 0.5 h [1, 4] | concentration at 0.5 h [1, 5] [ng/mL] | concentration at 1.5 h ([1]; hippocampus, 1.5 hr after administration, read-out: hippocampus concentration (mean)) [ng/g] | Kp at 1.5 h ([1]; hippocampus/plasma, 1.5 hr after administration, read-out: hippocampus/plasma concentration ratio (mean)) | concentration at 1.5 h ([1]; plasma, 1.5 hr after administration, read-out: plasma concentration (mean)) [ng/mL]
1 | Cc1nnc(NC(=O)c2cccc([C@@H]3C[C@H]3NC3CCC(F)(F)CC3)c2)s1 (relative stereo) [Example 167, 3-(trans-2-((4,4-difluorocyclohexyl)amino)cyclopropyl)-N-(5-methyl-1,3,4-thiadiazol-2-yl)benzamide hydrochloride] | 915 | 0.74 | 1230 | 105.3 | 102.5 | 86.4 | 103.2 | 102.4 | 68.2 |  |  |  |  |  | 
2 | Cn1cc(NC(=O)c2cccc([C@@H]3C[C@H]3NC3CCC3)c2)cn1 (relative stereo) [Example 169, 3-(trans-2-(cyclobutylamino)cyclopropyl)-N-(1-methyl-1H-pyrazol-4-yl)benzamide dihydrochloride] | 396 | 0.56 | 707 | 102.2 | 105.1 | 99.1 | 100.7 | 103.7 | 109.2 |  |  |  |  |  | 
3 | Cn1cc(NC(=O)c2cccc([C@@H]3C[C@H]3NC3CCN(CC(F)(F)F)CC3)c2)cn1 (relative stereo) [Example 171, N-(1-methyl-1H-pyrazol-4-yl)-3-(trans-2-((1-(2,2,2-trifluoroethyl)piperidin-4-yl)amino)cyclopropyl)benzamide trihydrochloride] |  |  |  | 114.6 | 98.5 | 133.3 | 104.8 | 98.9 | 133.9 | 266 | 0.2 | 1310 |  |  | 
4 | Cc1nnc(NC(=O)c2cccc([C@@H]3C[C@H]3NC3CCC3)c2)s1 (relative stereo) [Example 174, 3-(trans-2-(cyclobutylamino)cyclopropyl)-N-(5-methyl-1,3,4-thiadiazol-2-yl)benzamide hydrochloride] | 1280 |  | 1250 | 97.9 | 95.4 | 97.4 | 93.7 | 100.2 | 100.6 |  |  |  |  |  | 
5 | O=C(NC1CCOCC1)c1cccc([C@@H]2C[C@H]2NC2CCC(F)(F)CC2)c1 (relative stereo) [Example 178, 3-(trans-2-((4,4-difluorocyclohexyl)amino)cyclopropyl)-N-(tetrahydro-2H-pyran-4-yl)benzamide hydrochloride] |  |  |  | 90.2 | 98.5 | 93.2 | 85.2 | 98.9 | 84.5 | 546 | 0.52 | 1050 |  |  | 
6 | Cc1nnc(NC(=O)c2cc([C@@H]3C[C@H]3NC3CCC3)ccc2F)s1 (relative stereo) [Example 183, 5-(trans-2-(cyclobutylamino)cyclopropyl)-2-fluoro-N-(5-methyl-1,3,4-thiadiazol-2-yl)benzamide dihydrochloride] |  |  |  | 96.4 | 98.5 | 88.1 | 86.6 | 97.5 | 114.9 |  |  |  | 884 | 1.35 | 651
7 | Cc1nnc(NC(=O)c2ccc(C)c([C@@H]3C[C@H]3NC3CCOCC3)c2)s1 (relative stereo) [Example 185, 4-methyl-N-(5-methyl-1,3,4-thiadiazol-2-yl)-3-(trans-2-(tetrahydro-2H-pyran-4-ylamino)cyclopropyl)benzamide hydrochloride] |  |  |  | 90.4 | 102.0 | 88.0 | 84.7 | 100.7 | 129.9 | 581 | 0.58 | 1020 |  |  | 
8 | Cn1cc(NC(=O)c2cccc([C@@H]3C[C@H]3NC3CCC(F)(F)CC3)c2)cn1 (relative stereo) [Example 205, 3-(trans-2-((4,4-difluorocyclohexyl)amino)cyclopropyl)-N-(1-methyl-1H-pyrazol-4-yl)benzamide dihydrochloride] | 437 | 0.47 | 920 | 114.7 | 97.8 | 81.6 | 110.8 | 104.0 | 80.9 |  |  |  |  |  | 
9 | Cc1cc(NC(=O)c2cccc([C@@H]3C[C@H]3NC3CCC(F)(F)CC3)c2)n(C)n1 (relative stereo) [Example 215, 3-(trans-2-((4,4-difluorocyclohexyl)amino)cyclopropyl)-N-(1,3-dimethyl-1H-pyrazol-5-yl)benzamide dihydrochloride] |  |  |  | 100.7 | 98.4 | 113.3 | 91.2 | 99.8 | 124.7 | 481 | 0.31 | 1570 |  |  | 
10 | Cc1nnc(NC(=O)c2cc([C@@H]3C[C@H]3NC3CCC(F)(F)CC3)ccc2F)s1 (relative stereo) [Example 223, 5-(trans-2-((4,4-difluorocyclohexyl)amino)cyclopropyl)-2-fluoro-N-(5-methyl-1,3,4-thiadiazol-2-yl)benzamide dihydrochloride] |  |  |  | 94.8 | 101.2 | 114.5 | 98.9 | 100.4 | 121.7 | 2390 | 1.69 | 1400 |  |  | 
